Assay results from patent US20140309244A1, “NOVEL MICROBIOCIDES” (SYNGENTA PARTICIPATIONS AG, priority 2010, published 2014).

What was measured:
[1] = test system: Puccinia recondita f. sp. tritici; experiment: Puccinia recondita f. sp. tritici / wheat / leaf disc curative (brown rust); assay type: in vivo; settings: foliar, wheat cv Kanzler leaf segments, applied 1 day after inoculation, assessed 6-8 days after application, read-out: control of Puccinia recondita f. sp. tritici (percent disease control compared to untreated)
Experimental: Puccinia recondita f. sp. tritici/Wheat/Leaf Disc Curative (Brown Rust): Wheat leaf segments cv Kanzler were placed on agar in 24-well plates. The leaf segments were inoculated with a spore suspension of the fungus. The plates were stored in darkness at 19° C. and 75% relative humidity. The formulated test compound diluted in water was applied at an application rate of 200 ppm 1 day after inoculation.

[2] = test system: Mycosphaerella arachidis (Cercospora arachidicola); experiment: Mycosphaerella arachidis (Cercospora arachidicola) / liquid culture (early leaf spot); assay type: cell-based; settings: PDB potato dextrose broth, 96-well plate, 24° C., 4-5 days after application, read-out: control of Mycosphaerella arachidis (inhibition of growth, photometric)
Pyrenophora teres = Pyrenophora teres / barley / leaf disc preventative (net blotch); assay type: in vivo; settings: foliar, barley cv Hasso leaf segments, inoculated two days after application, assessed 5-7 days after application, read-out: control of Pyrenophora teres (disease control compared to untreated)
[3] = test system: Phaeosphaeria nodorum (Septoria nodorum); experiment: Phaeosphaeria nodorum (Septoria nodorum) / wheat / leaf disc preventative (glume blotch); assay type: in vivo; settings: Parastagonospora nodorum, foliar, wheat cv Kanzler leaf segments, inoculated 2 days after application, assessed 5-7 days after application, read-out: control of Phaeosphaeria nodorum (percent disease control compared to untreated)
[4] = test system: Botryotinia fuckeliana (Botrytis cinerea); experiment: Botryotinia fuckeliana (Botrytis cinerea) / liquid culture (gray mould); assay type: cell-based; settings: Vogels broth, 96-well plate, 24° C., 3-4 days after application, read-out: control of Botryotinia fuckeliana (inhibition of growth, photometric)
[5] = test system: Glomerella lagenarium (Colletotrichum lagenarium); experiment: Glomerella lagenarium (Colletotrichum lagenarium) / liquid culture (anthracnose); assay type: cell-based; settings: Colletotrichum orbiculare, PDB potato dextrose broth, 96-well plate, 24° C., 3-4 days after application, read-out: control of Glomerella lagenarium (inhibition of growth, photometric)
[6] = test system: Blumeria graminis f. sp. tritici (Erysiphe graminis f. sp. tritici); experiment: Blumeria graminis f. sp. tritici (Erysiphe graminis f. sp. tritici) / wheat / leaf disc preventative (powdery mildew on wheat); assay type: in vivo; settings: foliar, wheat cv. Kanzler leaf segments, inoculated 1 day after application, assessed 6-8 days after application, read-out: control of Blumeria graminis (percent disease control compared to untreated)
[7] = test system: Mycosphaerella graminicola (Septoria tritici); experiment: Mycosphaerella graminicola (Septoria tritici) / liquid culture (Septoria blotch); assay type: cell-based; settings: Zymoseptoria tritici, PDB potato dextrose broth, 96-well plate, 24° C., 4-5 days after application, read-out: control of Mycosphaerella graminicola (inhibition of growth, photometric)
[8] = test system: Puccinia recondita f. sp. tritici; experiment: Puccinia recondita f. sp. tritici / wheat / leaf disc preventative (brown rust); assay type: in vivo; settings: foliar, wheat cv Kanzler leaf segments, inoculated 1 day after application, assessed 7-9 days after application, read-out: control of Puccinia recondita f. sp. tritici (percent disease control compared to untreated)
Experimental: Puccinia recondita f. sp. tritici/Wheat/Leaf Disc Preventative (Brown Rust) Wheat leaf segments cultivated variety (cv) Kanzler were placed on agar in 24-well plates and sprayed with formulated test compound diluted in water at an application rate of 200 ppm. The leaf disks were inoculated with a spore suspension of the fungus 1 day after application. The inoculated leaf segments were incubated at 19° C. and 75% relative humidity under a light regime of 12/12 h (light/dark) in a climate cabinet and the activity of a compound was assessed as percent disease control compared to untreated when an appropriate level of disease damage appears in untreated check leaf segments (7-9 days after application). […].103

[9] = test system: Thanatephorus cucumeris (Rhizoctonia solani); experiment: Thanatephorus cucumeris (Rhizoctonia solani) / liquid culture (foot rot, damping-off); assay type: cell-based; settings: liquid culture of mycelia fragments, PDB potato dextrose broth, 96-well plate, 24° C., 3-4 days after application, read-out: control of Thanatephorus cucumeris (inhibition of growth, photometric)
Experimental: Thanatephorus cucumeris (Rhizoctonia solani)/Liquid Culture (Foot Rot, Damping-Off): Mycelia fragments of a newly grown liquid culture of the fungus are directly mixed into nutrient broth (PDB potato dextrose broth). After placing a DMSO solution of the test compounds into a 96-well microtiter plate at an application rate of 200 ppm, the nutrient broth containing the fungal material was added. The test plates were incubated at 24° C. and the inhibition of growth was determined photometrically 3-4 days after application.

Gaeumannomyces graminis = Gaeumannomyces graminis / liquid culture (take-all of cereals); assay type: cell-based; settings: liquid culture of mycelial fragments, PDB potato dextrose broth, 96-well plate, 24° C., 4-5 days after application, read-out: control of Gaeumannomyces graminis (inhibition of growth, photometric)
[10] = test system: Monographella nivalis (Microdochium nivale); experiment: Monographella nivalis (Microdochium nivale) / liquid culture (foot rot cereals); assay type: cell-based; settings: PDB potato dextrose broth, 96-well plate, 24° C., 4-5 days after application, read-out: control of Monographella nivalis (inhibition of growth, photometric)
Experimental: Monographella nivalis (Microdochium nivale)/Liquid Culture (Foot Rot Cereals): Conidia of the fungus from cryogenic storage were directly mixed into nutrient broth (PDB potato dextrose broth). After placing a DMSO solution of test compound into a 96-well microtiter plate at an application rate of 200 ppm, the nutrient broth containing the fungal spores was added. The test plates were incubated at 24° C. and the inhibition of growth was determined photometrically 4-5 days after application. […].103

CCO/N=C(\C)c1cccc(CCCO/N=C(\C)c2cccc(C)n2)n1 [P.01]
≥ 80%: pest or weed control at 200 ppm [1] | inhibition at 200 ppm [2] | pest or weed control at 200 ppm (Pyrenophora teres) | pest or weed control at 200 ppm [3] | inhibition at 200 ppm [4] | inhibition at 200 ppm [5] | pest or weed control at 200 ppm [6] | inhibition at 200 ppm [7] | pest or weed control at 200 ppm [8]

CCc1cccc(/C(C)=N/OCCCc2cccc(/C(C)=N/OC)n2)n1 [P.19]
≥ 80%: pest or weed control at 200 ppm [1] | inhibition at 200 ppm [2] | inhibition at 200 ppm [9] | pest or weed control at 200 ppm (Pyrenophora teres) | pest or weed control at 200 ppm [3] | inhibition at 200 ppm [4] | inhibition at 200 ppm [7]

CO/N=C(\C)c1cccc(CCCO/N=C2\CCCc3c2nc2cc(Cl)ccc2c3C)n1 [P.83]
≥ 80%: inhibition at 200 ppm [2] | inhibition at 200 ppm (Gaeumannomyces graminis) | pest or weed control at 200 ppm (Pyrenophora teres) | inhibition at 200 ppm [4] | inhibition at 200 ppm [5] | pest or weed control at 200 ppm [6] | inhibition at 200 ppm [7]

CO/N=C(\C)c1cccc(CCCO/N=C2\CCCc3ccc(OC)nc32)n1 [P.56]
≥ 80%: pest or weed control at 200 ppm [1] | inhibition at 200 ppm [2] | inhibition at 200 ppm (Gaeumannomyces graminis) | inhibition at 200 ppm [9] | pest or weed control at 200 ppm [3] | inhibition at 200 ppm [4] | inhibition at 200 ppm [5] | pest or weed control at 200 ppm [6] | inhibition at 200 ppm [7] | inhibition at 200 ppm [10]

CO/N=C(/c1cccc(CCCO/N=C(\C)c2cccc(C)n2)n1)C(C)C (single isomer, unassigned) [P.23A]
≥ 80%: inhibition at 200 ppm [2] | inhibition at 200 ppm (Gaeumannomyces graminis) | pest or weed control at 200 ppm (Pyrenophora teres) | inhibition at 200 ppm [4] | pest or weed control at 200 ppm [6] | inhibition at 200 ppm [7]

CO/N=C(\C)c1cccc(CCCO/N=C(\C)c2cccc(-c3cccc(OC)c3)n2)n1 [P.14]
≥ 80%: inhibition at 200 ppm [2] | inhibition at 200 ppm (Gaeumannomyces graminis) | pest or weed control at 200 ppm (Pyrenophora teres) | pest or weed control at 200 ppm [3] | inhibition at 200 ppm [7] | pest or weed control at 200 ppm [8]

CC/C(=N\OC)c1cccc(CCCO/N=C(\C)c2cccc(C)n2)n1 [P.22]
≥ 80%: pest or weed control at 200 ppm [1] | inhibition at 200 ppm [2] | inhibition at 200 ppm (Gaeumannomyces graminis) | pest or weed control at 200 ppm (Pyrenophora teres) | pest or weed control at 200 ppm [3] | inhibition at 200 ppm [4] | inhibition at 200 ppm [5] | pest or weed control at 200 ppm [6] | inhibition at 200 ppm [7] | inhibition at 200 ppm [10] | pest or weed control at 200 ppm [8]

CO/N=C(\C)c1cccc(CCCO/N=C2\CCCc3c2nc2ccccc2c3Cl)n1 [P.95]
≥ 80%: inhibition at 200 ppm [2] | inhibition at 200 ppm (Gaeumannomyces graminis) | inhibition at 200 ppm [9] | pest or weed control at 200 ppm (Pyrenophora teres) | pest or weed control at 200 ppm [3] | inhibition at 200 ppm [4] | inhibition at 200 ppm [5] | inhibition at 200 ppm [7] | inhibition at 200 ppm [10]

CO/N=C(\C)c1cccc(CCCO/N=C2\CCCc3c2nc2ccccc2c3C)n1 [P.55]
≥ 80%: pest or weed control at 200 ppm [1] | inhibition at 200 ppm [2] | inhibition at 200 ppm (Gaeumannomyces graminis) | pest or weed control at 200 ppm (Pyrenophora teres) | pest or weed control at 200 ppm [3] | inhibition at 200 ppm [4] | inhibition at 200 ppm [5] | pest or weed control at 200 ppm [6] | inhibition at 200 ppm [7] | inhibition at 200 ppm [10] | pest or weed control at 200 ppm [8]

CO/N=C(\C)c1cccc(CC(C)CO/N=C(\C)c2cccc(C)n2)n1 (stereo not shown) [P.03]
≥ 80%: pest or weed control at 200 ppm [1] | inhibition at 200 ppm [2] | inhibition at 200 ppm [9] | pest or weed control at 200 ppm (Pyrenophora teres) | pest or weed control at 200 ppm [3] | inhibition at 200 ppm [4] | inhibition at 200 ppm [5] | pest or weed control at 200 ppm [6] | inhibition at 200 ppm [7] | inhibition at 200 ppm [10] | pest or weed control at 200 ppm [8]

CO/N=C(\C)c1cccc(CCCO/N=C2\CCCc3c2nc2cc(OC)ccc2c3C)n1 [P.69]
≥ 80%: pest or weed control at 200 ppm [1] | inhibition at 200 ppm [2] | inhibition at 200 ppm (Gaeumannomyces graminis) | inhibition at 200 ppm [9] | pest or weed control at 200 ppm [3] | inhibition at 200 ppm [4] | inhibition at 200 ppm [5] | pest or weed control at 200 ppm [6] | inhibition at 200 ppm [7] | inhibition at 200 ppm [10] | pest or weed control at 200 ppm [8]

CO/N=C(\C)c1cc(OC)cc(CCCO/N=C(\C)c2cccc(C)n2)n1 [P.103]
≥ 80%: pest or weed control at 200 ppm [1] | inhibition at 200 ppm [2] | inhibition at 200 ppm (Gaeumannomyces graminis) | pest or weed control at 200 ppm (Pyrenophora teres) | pest or weed control at 200 ppm [3] | inhibition at 200 ppm [4] | inhibition at 200 ppm [5] | pest or weed control at 200 ppm [6] | inhibition at 200 ppm [7] | inhibition at 200 ppm [10] | pest or weed control at 200 ppm [8]

CO/N=C(\C)c1cccc(CCCO/N=C2\CCCc3c2nc2ccc(Br)cc2c3C)n1 [P.84]
≥ 80%: inhibition at 200 ppm [2] | inhibition at 200 ppm (Gaeumannomyces graminis) | pest or weed control at 200 ppm (Pyrenophora teres) | pest or weed control at 200 ppm [3] | inhibition at 200 ppm [4] | inhibition at 200 ppm [5] | pest or weed control at 200 ppm [6] | inhibition at 200 ppm [7]

C=CCO/N=C(\C)c1cccc(CCCO/N=C(\C)c2cccc(C)n2)n1 [P.09]
≥ 80%: pest or weed control at 200 ppm [1] | inhibition at 200 ppm [2] | pest or weed control at 200 ppm (Pyrenophora teres) | pest or weed control at 200 ppm [3] | inhibition at 200 ppm [4] | inhibition at 200 ppm [5] | pest or weed control at 200 ppm [6] | inhibition at 200 ppm [7] | inhibition at 200 ppm [10] | pest or weed control at 200 ppm [8]

C#CCO/N=C(\C)c1cccc(CCCO/N=C(\C)c2cccc(C)n2)n1 [P.02]
≥ 80%: pest or weed control at 200 ppm [1] | inhibition at 200 ppm [2] | inhibition at 200 ppm (Gaeumannomyces graminis) | pest or weed control at 200 ppm [3] | inhibition at 200 ppm [4] | inhibition at 200 ppm [7] | inhibition at 200 ppm [10]

CO/N=C(\C)c1cccc(CCCO/N=C(/c2ccccn2)c2ncc(C(F)(F)F)cc2Cl)n1 [P.51]
≥ 80%: inhibition at 200 ppm [2] | inhibition at 200 ppm (Gaeumannomyces graminis) | inhibition at 200 ppm [9] | pest or weed control at 200 ppm [3] | inhibition at 200 ppm [4] | inhibition at 200 ppm [5] | inhibition at 200 ppm [7] | inhibition at 200 ppm [10]

CO/N=C(\C)c1cccc(CCCO/N=C(\C)c2cccc(-c3ccccc3OC)n2)n1 [P.08]
≥ 80%: pest or weed control at 200 ppm [1] | inhibition at 200 ppm [2] | pest or weed control at 200 ppm (Pyrenophora teres) | pest or weed control at 200 ppm [3] | inhibition at 200 ppm [4] | pest or weed control at 200 ppm [6] | inhibition at 200 ppm [7] | inhibition at 200 ppm [10] | pest or weed control at 200 ppm [8]
